The text below walks through data of paper PMC4164441, “The Characterisation of an Alkali-Stable Maltogenic Amylase from Bacillus lehensis G1 and Improved Malto-Oligosaccharide Production by Hydrolysis Suppression” (PLoS ONE, 2014).

The target of the experiment is T1, MAG1 (Shouchella lehensis, UniProt X5CPN2).
T1 construct: gene BleG1_0772; full-length ORF, 582 residues, pET21a(+) in E. coli BL21(DE3), Ni-NTA purified, tag kept (His-tag western); 68 kDa SDS-PAGE; monomer/dimer mixture; primers start MNRAGII
T1 sequence (X5CPN2 entry or part of it): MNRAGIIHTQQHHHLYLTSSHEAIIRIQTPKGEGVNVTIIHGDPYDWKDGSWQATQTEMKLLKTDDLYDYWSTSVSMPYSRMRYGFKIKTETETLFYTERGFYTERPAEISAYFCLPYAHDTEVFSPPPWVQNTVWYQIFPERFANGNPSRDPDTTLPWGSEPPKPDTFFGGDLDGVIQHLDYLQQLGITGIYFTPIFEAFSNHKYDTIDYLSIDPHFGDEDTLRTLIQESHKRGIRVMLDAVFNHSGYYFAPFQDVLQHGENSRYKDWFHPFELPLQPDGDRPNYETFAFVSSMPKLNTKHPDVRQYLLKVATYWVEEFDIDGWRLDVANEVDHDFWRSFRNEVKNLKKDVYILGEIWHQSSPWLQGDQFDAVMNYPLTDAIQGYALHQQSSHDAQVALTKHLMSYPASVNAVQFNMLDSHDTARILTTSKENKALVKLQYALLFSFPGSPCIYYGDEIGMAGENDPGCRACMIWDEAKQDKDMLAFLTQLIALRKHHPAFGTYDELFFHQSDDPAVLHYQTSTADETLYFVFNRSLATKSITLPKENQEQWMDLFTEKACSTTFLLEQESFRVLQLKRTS
In words: DNS reducing sugar assay, Lineweaver-Burk plot. In kind it is biochemical. The following applies: 50 mM potassium phosphate pH 7.0, 40°C; hydrolysis; read-out: Km (mg ml^-1) (converted). The text has this: DNS reducing sugar assay, Lineweaver-Burk plot on MAG1

For the molecule `OC[C@H]1O[C@@H]2O[C@H]3[C@H](O)[C@@H](O)[C@@H](O[C@H]4[C@H](O)[C@@H](O)[C@@H](O[C@H]5[C@H](O)[C@@H](O)[C@@H](O[C@H]6[C@H](O)[C@@H](O)[C@@H](O[C@H]7[C@H](O)[C@@H](O)[C@@H](O[C@H]8[C@H](O)[C@@H](O)[C@@H](O[C@H]1[C@H](O)[C@H]2O)O[C@@H]8CO)O[C@@H]7CO)O[C@@H]6CO)O[C@@H]5CO)O[C@@H]4CO)O[C@@H]3CO` [β-CD], the Michaelis constant (Km) was 1120 µM.

By Km is commonly meant the substrate concentration at which the rate is half of its maximum.
